For experiment [1], the target named is purified Eis (Mycobacterium tuberculosis (strain ATCC 25618 / H37Rv), UniProt P9WFK7). In kind it is biochemical.
The target of experiment [2] is AAC(2′)-Ic (Mycobacterium tuberculosis (strain ATCC 25618 / H37Rv), UniProt P9WQG9). The experiment is described as follows: biochemical. Details: species or system Mtb.
Experiment [3] relates to Mtb H37Rv. Put plainly: Mycobacterial MIC determination by alamar blue, KAN with sulfonamides. The class given is cell-based, Mycobacterium tuberculosis. The note with it: anti-TB activity of KAN against Mtb H37Rv with compound; KAN line = KAN alone.
For experiment [4], the target named is AAC(6′)-Ie/APH(2″)-Ia (Staphylococcus aureus, UniProt P0A0C1). The experiment is described as follows: Inhibitor selectivity, sulfonamides. The class given is biochemical. The note with it: concentrations as high as 200 μM. The method, then:
(§1) To examine the selectivity of our two best inhibitors (39 and 46) towards Eis, next these two compounds were tested against three other AAC enzymes: AAC(2′)-Ic from Mtb (17, 18), AAC(3)-IV from E. coli (19, 20), and AAC(6′)-Ie/APH(2″)-Ia from Staphylococcus aureus (21, 22).
(§2) The conditions utilized for determination of IC50 values were also used here under the optimum conditions for each enzyme. […] AAC(6′)-Ie/APH(2″)-Ia experiments were incubated at 37° C. All other methods and concentrations are the same as for the experiments with Eis_Mtb.

The subject of experiment [5] is AAC(3)-IV. The experiment is described as follows: Inhibitor selectivity, sulfonamides. In kind it is biochemical, E. coli. The note with it: concentrations as high as 200 μM. As for the experimental part:
as §1, §2

Molecules are shown by their SMILES. Some results are limits rather than exact numbers.

Data on two compounds can be found in patent US10208000B2, “Eis inhibitors” (priority 2015, dated 2019).

Take `CN(c1ccccc1)S(=O)(=O)c1ccc2[nH]c(=O)c(=O)[nH]c2c1` [Compound 33]: the “decrease in Eis inhibitory activity compared to lead 29” value in experiment [1] came out at 70 fold.

Consider `CN(c1ccc2ccccc2c1)S(=O)(=O)c1ccc2[nH]c(=O)c(=O)[nH]c2c1` [Compound 46], for which the “inhibition of KAN acetylation by AAC(2′)-Ic” value in experiment [2] is recorded as “did not inhibit”. For the same compound, the “H37Rv MICKAN” value in experiment [3] was at most 1.25 µg/mL. Also, in experiment [4], the “inhibition of KAN acetylation by AAC(6′)-Ie/APH(2″)-Ia” value is “did not inhibit”. Also, in experiment [5], the “inhibition of KAN acetylation by AAC(3)-IV” value is “did not inhibit”.
